Each structure is given as a SMILES string. pIC50: −log10 of the molar value. Counter-ions that a name gives are not always drawn.

By pIC50 is commonly meant the negative decadic logarithm of the IC50, by convention in mol/L. For orientation: inhibition means the relative decrease from the control value, in per cent.

Test [1] relates to D-galactosamine animal model of septic shock. As to the kind of experiment: D-galactosamine animal model of septic shock (protection against lethal effects of LPS). In kind it is in vivo. Conditions: treated about 1 hour before i.p. challenge of D-galactosamine and LPS, by 18 hours after challenge, test compound 100 mg/kg i.p.
A further test deals with TNF-α. As to the kind of experiment: LPS-stimulated human monocyte-derived macrophage TNF-α inhibition assay. The class given is cell-based. Conditions: 18 hours of culture. How it is done:
Monocyte-derived macrophages stimulated with bacterial lipopolysaccharide (LPS) produce high levels of TNF-α (25.8+4.2 ηg/mL) during 18 hours of culture.

Regarding `Nc1ncnc2c1ncn2[C@H]1CC[C@H]2[C@@H]1CC[C@H]2O` (racemic) [(±)-Exo-2-adenyl-endo-6-hydroxybicyclo[3,3,0]octane Dihydrochloride], in test [1] (mice), the protection is 100%. In addition, in test [1], the mice killed is 0 out of 8. Also, the pIC50 in the test with TNF-α (monocyte-derived macrophages from human peripheral blood, LPS-stimulated, dose response 100 μM-0.1 μM, read-out: IC50 for inhibiting TNF-α levels) is 6.84.

On to `CC(=O)CCCCn1c(=O)c2c(ncn2C)n(C)c1=O` [Pentoxifylline, reference compound], for which the inhibition at 50 µM in the test with TNF-α (Homo sapiens, at 50 μM, LPS-stimulated monocyte-derived macrophages, read-out: inhibition of TNF-α levels) is 73.5%.

The values above are taken from US6420373B1, “9-N-Bicyclic nuceoside agents useful as selective inhibitors of proinflammatory cytokines” (Merrell Pharmaceuticals Inc., priority 1993, dated 2002).
